Assay results as given in PubChem BioAssay (NCI).
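Step 1: Grow cells in 96-well plates. Step 2: Expose to compound for 48 hours at 5 concentrations. Step 3: Interpolate endpoints linearly; if unreached, use highest concentration. GI50: concentration for 50% inhibition of growth. Definition used: TGI = concentration required for complete inhibition of growth.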

What was measured:
Test in all cases: NCI-60 cell line screen, 48 h
[1] = test system: NCI-H226 lung
[2] = test system: NCI-H23 lung
[3] = test system: NCI-H460 lung
[4] = test system: NCI-H522 lung
[5] = test system: OVCAR-3 ovarian
[6] = test system: OVCAR-4 ovarian
[7] = test system: OVCAR-5 ovarian
[8] = test system: OVCAR-8 ovarian
[9] = test system: PC-3 prostate
[10] = test system: RPMI-8226 leukemia
[11] = test system: RXF 393 renal
[12] = test system: SF-268 CNS
[13] = test system: SF-295 CNS
[14] = test system: SF-539 CNS
[15] = test system: SK-MEL-2 melanoma
[16] = test system: SK-MEL-28 melanoma
[17] = test system: SK-MEL-5 melanoma
[18] = test system: SK-OV-3 ovarian
[19] = test system: SN12C renal
[20] = test system: SNB-19 CNS
[21] = test system: SNB-75 CNS
[22] = test system: SR leukemia
[23] = test system: SW-620 colon
[24] = test system: T-47D breast
[25] = test system: TK-10 renal
[26] = test system: U251 CNS
[27] = test system: UACC-257 melanoma
[28] = test system: UACC-62 melanoma
[29] = test system: UO-31 renal

O=C([Se]C1C=CCCC1)c1ccc(C(=O)[Se]C2C=CCCC2)s1 (stereo not drawn) showed a GI50 [1] of 3.42 µM, a TGI [1] of 15.2 µM and a GI50 [2] of 1.95 µM. It also gave a TGI [2] of 4.18 µM, a GI50 [3] of 1.43 µM and a TGI [3] of 10.1 µM. The GI50 [4] was 1.71 µM, the TGI [4] was 3.32 µM and the GI50 [5] was 2.13 µM. For the same compound, the TGI [5] was 4.7 µM, the GI50 [6] was 2.19 µM and the TGI [6] was 4.98 µM. For the same compound, the GI50 [7] was 2.07 µM, the TGI [7] was 4.75 µM and the GI50 [8] was 1.79 µM. The TGI [8] was 3.47 µM, the GI50 [9] was 1.95 µM and the TGI [9] was 5.95 µM. It also gave a GI50 [10] of 2.53 µM, a TGI [10] of 6.53 µM and a GI50 [11] of 2.37 µM. For the same compound, the TGI [11] was 5.69 µM, the GI50 [12] was 3.34 µM and the TGI [12] was 16.9 µM. The GI50 [13] was 0.366 µM, the TGI [13] was 1.64 µM and the GI50 [14] was 1.82 µM. For the same compound, the TGI [14] was 3.23 µM, the GI50 [15] was 1.77 µM and the TGI [15] was 3.71 µM. The GI50 [16] was 3.11 µM, the TGI [16] was 11.6 µM and the GI50 [17] was 1.83 µM. It also gave a TGI [17] of 3.99 µM, a GI50 [18] of 2.33 µM and a TGI [18] of 5.33 µM. It also gave a GI50 [19] of 2.05 µM, a TGI [19] of 4.34 µM and a GI50 [20] of 1.35 µM. The TGI [20] was 3.56 µM, the GI50 [21] was 1.38 µM and the TGI [21] was 2.94 µM. The GI50 [22] was 2.26 µM, the TGI [22] was 5.53 µM and the GI50 [23] was 2.32 µM. The TGI [23] was 6.01 µM, the GI50 [24] was 2.17 µM and the TGI [24] was 5.19 µM. It also gave a GI50 [25] of 1.87 µM, a TGI [25] of 3.88 µM and a GI50 [26] of 1.94 µM. For the same compound, the TGI [26] was 4.47 µM, the GI50 [27] was 2.44 µM and the TGI [27] was 6.89 µM. The GI50 [28] was 1.92 µM, the TGI [28] was 4.2 µM and the GI50 [29] was 1.73 µM. The TGI [29] was 3.38 µM.
